Entries after “also recorded” stand apart in the source; their conditions may differ. Some results are limits rather than exact numbers.

For orientation: melting point means the temperature, or range, at which the solid turns liquid. Usually half-life stands for the time in which the quantity being followed falls by half. A lower half-life goes with rapid decline.

Data set [1] deals with anesthetized rat. Nature of the data set: Anesthetized rat spirometry screening assay. As to conditions: for AUC MV Inc (2 min) (ratio vs. std*): 2 minute AUC of minute volume increase vs. comparator N-[2,6-di-(n-propylamino)-[1,3]pyrimidin-4-yl]-N,O-dimethyl-hydroxylamine. It counts as in vivo. The text has this:
Effect of Compounds of the Invention on Respiratory Rate (RR), Tidal Volume (VT), and the Product Minute Volume Using an Anesthetized Rat Spirometry Screening Assay
Anesthetized rats provide a quick method of screening compounds for respiratory and cardiovascular activity. In contrast to the conscious rat model, this model offers an experimental set up with less variation in the baseline cardiovascular and respiratory measures. Compounds screened in this assay may be examined in a conscious rat model.
Rats were initially anesthetized with 3% isoflurane (inhaled) and femoral artery and vein cannulas were surgically inserted. Once cannulated, the rats were transitioned to urethane anesthesia (1.5 g/kg; i.v.) and a tracheal cut-down was performed. After placing the tracheal cannula, it was connected to a pneumotachometer to record respiratory airflow from which respiratory rate (RR), tidal volume (VT), and their product minute volume were derived. After the surgical preparation was complete, animals were allowed to stabilize for 30 minutes while respiratory rate, tidal volume, minute volume, blood pressure and heart rate were recorded continuously. Arterial blood gases (ABG) were obtained from arterial blood collected from the femoral artery. ABG measurements were taken before and 6 minutes after vehicle and each dose of compound administered. Compounds being screened were administered via bolus injections through the venous cannula followed by a saline flush (total time of administration is approximately 30 seconds), and the animal was monitored for at least 6 minutes for changes in cardiovascular efforts. Compounds were prepared in formulations identified to ensure optimal solubility. As such, vehicle controls were matched for the formulation of each compound tested. Dosing of the compound being screened was 0.1 and 0.3 mg/kg. The next dose was not administered until all cardiovascular and respiratory measures had returned to baseline levels. The positive control compounds used were N-[4,6-di-(n-propylamino)-[1,3,5]triazin-2-yl]-N,O-dimethyl-hydroxylamine or N-[2,6-di-(n-propylamino)-[1,3]pyrimidin-4-yl]-N,O-dimethyl-hydroxylamine (both administered at the end of each screening experiment (0.3 mg/kg dose) to validate the experiment and also to serve as a measure with which the compound being screened could be compared.
Data were analyzed by collecting cardiovascular and respiratory data in 30 second averages (BINs). Data were plotted 2 minutes before challenge and then 6 minutes after challenge.

Data set [2] can be described thus: in vitro. As to conditions: male, rat, microsomes.
Data set [3] in a line: In vitro metabolic stability in human liver microsomes (HLM). The conditions noted are these: both, human, liver microsomes. For orientation: Liver microsomes are vesicles of endoplasmic reticulum, rich in cytochrome P450 enzymes.
In data set [4] the test system is rats chronically treated with morphine. The data set is described as follows: Apnea, ventilation and sleep structure in rats chronically treated with morphine (whole-body plethysmography). It counts as in vivo, Zucker rats. As to conditions: oral gavage; for apnea frequency / number of apneas per hr expressed as a percent change from baseline (pre-drug): versus treatment with a vehicle. The text has this:
The objective of this study was to quantify the effects of selected compounds of this invention on apnea, ventilation and sleep structure in a rat model. The study consisted of two treatment conditions: (1) chronic morphine and test compound administered orally, and (2) chronic morphine and oral vehicle.
Adult male lean Zucker rats were anesthetized for electroencephalogram (EEG) and electromyogram (EMG) telemeter implantation. At least one week was permitted post-surgery before animals were used further. Morphine sulfate was added to the drinking water of singly housed rats beginning with 0.1 mg/ml morphine and increasing the concentration in increments, so that a final concentration of 0.6 mg/ml was achieved within 2 weeks. All respiratory measurements were made while animals were unrestrained in whole-body plethysmography chambers to permit animals to sleep and move freely. To avoid eliciting withdrawal, morphine water was continuously available during each plethysmography experiment. Minute volume and the number of central sleep apneas (CSA) were measured during all treatment conditions. A period of at least 1 to 1.5 h was permitted for animals to acclimate to the chamber before data collection began. The biopotential telemeters and their receivers were placed directly under the plethysmographic chambers and were used to continuously to capture EEG, EMG, and body temperature signals. Only data collected between the hours of 10 am to 4:30 pm were used in the final analysis to control for the effects of circadian rhythm on breathing.
Test compound in vehicle or an equivalent volume of vehicle was administered via an oral gavage tube at 12 pm. Data collected between 10 am and 12 pm represented baseline (pre-drug) conditions. Data collected between […] represented post-drug conditions. Analyses of the EEG and EMG waveforms for the purpose of staging sleep-wake behavior in rats as awake, NREM sleep, and REM sleep were based on previous sleep studies involving rodents. Central apneas were defined as a respiratory cycle period that was more than or equal to twice the average cycle period during baseline recordings. Percent time in each sleep-wake state, minute volume, and central sleep apnea counts were compared between treatment groups using a two-way ANOVA (factors: drug treatment and time). Breathing data during wakefulness was not analyzed because movement prevents measurement of accurate volumes when using whole-body plethysmography. When differences were detected with ANOVA, Student-Neuman-Keuls post hoc tests were run for all main effects and interactions. Differences were considered significant when p<0.05. Values are expressed as means±SE.

`CCCNc1nc(NCCC)c2nc(NCCC)nc(NCCC)c2n1.Cl` [Compound 6a, N^2,N^4,N^6,N^8-Tetra-n-propyl-pyrimido[5,4-d]pyrimidine-2,4,6,8-tetraamine hydrochloride]: the melting point lay in the range of 208 to 211 °C. The “AUC MV Inc (2 min) (ratio vs. std*)” value in data set [1] was determined as 0.54 ratio vs. std. Further, the half-life at 5 μM in data set [2] stood at 6.93 h. In data set [3], this compound came in with a half-life at 5 μM greater than 8.33 h.
Turning to `CCCNc1nc(NC)c2nc(NCCC)nc(NC)c2n1.Cl` [Compound 27a, N^4,N^8-Dimethyl-N^2,N^6-di-n-propyl-pyrimido[5,4-d]pyrimidine-2,4,6,8-tetraamine hydrochloride], the “AUC MV Inc (2 min) (ratio vs. std*)” value in data set [1] turned out to be 1.22 ratio vs. std. In addition, in data set [1] (anesthetized rat, i.v. bolus), the “duration of increase in minute ventilation” value is reported as “approximately 2 minutes”, the “effect on blood pressure” value is on record as “minimal effects”, the “effect on minute ventilation above baseline values” is “increase” and the “effect on pulse rate” value was “minimal effects”. Besides, the “effect on respiratory rate” value in data set [1] (anesthetized rat, i.v. bolus) was “stimulatory effects”. Also, the “dose dependence of effect on minute volume” value in data set [1] (based on a two-minute average) is listed as “dose-dependent effect”. In addition, the “effect compared to a reference compound as measured by area-under-curve” value in data set [1] (minute volume, two-minute average) was “greater effect”. Further, in data set [4] (hydrochloride), the apnea frequency result is listed as “reduced; also recorded: decreased”, the “number of apneas per hr expressed as a percent change from baseline (pre-drug)” value is “reduced; also recorded: decreased”, the “minute volume compared to a vehicle-treated group” value is “did not cause an increase; also recorded: do not cause increases” and the “number of apneas per hr versus vehicle” value was “reduced; also recorded: decreased”. Also, the “ventilation per unit time compared to vehicle” value in data set [4] (hydrochloride) is “did not cause an increase; also recorded: do not cause an increase”. The half-life at 5 μM in data set [2] amounted to 2.27 h. Moreover, the half-life at 5 μM in data set [3] is 2.12 h.
For the compound `CNc1nc(NCC2CC2)nc2c(NC)nc(NCC3CC3)nc12` [Compound 84, N^2,N^6-Bis-cyclopropylmethyl-N^4,N^8-dimethyl-pyrimido[5,4-d]pyrimidine-2,4,6,8-tetraamine], the melting point was in the range of 264 to 268 °C.
`CNc1nc(N(C)NC)nc2c(NC)nc(N(C)NC)nc12` [Compound 91, 2,6-bis-(N,N′-dimethyl-hydrazino)-N^4,N^8-dimethyl-pyrimido[5,4-d]pyrimidine-4,8-diamine]: the “AUC MV Inc (2 min) (ratio vs. std*)” value in data set [1] worked out at 0.08 ratio vs. std. Also, the results for the half-life at 5 μM in data set [2] and in data set [3] were 0.4 h and 1.7 h, respectively.
Turning to `CNc1nc(N(C)NC)nc2c(NC)nc(N(C)C)nc12` [Compound 93a, 6-(N,N′-Dimethyl-hydrazino)-N^2,N^2,N^4,N^8-tetramethyl-pyrimido[5,4-d]pyrimidine-2,4,8-triamine], the “AUC MV Inc (2 min) (ratio vs. std*)” value in data set [1] is 0.03 ratio vs. std. For the same compound, the figures for the half-life at 5 μM in data set [2] and in data set [3] were 0.233 h and 1.35 h, respectively.
`CCCNc1nc(NC)c2nc(C(=O)O)nc(NC)c2n1` [Compound 108, 4,8-Bis-methylamino-6-n-propylamino-pyrimido[5,4-d]pyrimidine-2-carboxylic acid] came in with a melting point of 218 to 220 °C. For the same compound, the “AUC MV Inc (2 min) (ratio vs. std*)” value in data set [1] is reported as 0.05 ratio vs. std.
Consider `CCCNc1nc(NC)c2nc(-c3ccc(F)cc3)nc(NC)c2n1` [Compound 112a, N^4,N^8-Dimethyl-N^2-n-Propyl-6-(4-fluorophenyl)-pyrimido[5,4-d]pyrimidine-2,4,8-triamine], for which the “AUC MV Inc (2 min) (ratio vs. std*)” value in data set [1] is on record as 0.14 ratio vs. std. Moreover, the half-life at 5 μM in data set [2] was determined as 1.73 h; in data set [3], 2.02 h.
On to `CCCNc1nc(-c2ccc(F)cc2)nc2c(NCCC)nc(NC)nc12` [Compound 114a, N^2-Methyl-N^4,N^8-di-n-propyl-6-(4-fluoro-phenyl)-pyrimido[5,4-d]pyrimidine-2,4,8-triamine], for which, in data set [1], the “AUC MV Inc (2 min) (ratio vs. std*)” value is 0.05 ratio vs. std. Further, the half-life at 5 μM in data set [2] was 4.15 h; in data set [3], 5.08 h.
Take `CCCCc1nc(NCCC)c2nc(NC)nc(NCCC)c2n1` [Compound 118a, 6-n-Butyl-N^2-methyl-N^4,N^8-di-n-propyl-pyrimido[5,4-d]pyrimidine-2,4,8-triamine]: the “AUC MV Inc (2 min) (ratio vs. std*)” value in data set [1] amounted to 0.05 ratio vs. std. Further, the half-life at 5 μM in data set [2] was determined as 0.567 h; in data set [3], 1.2 h.
In the same order, the values of `CCCNc1nc(OC)nc2c(NCCC)nc(NC)nc12` [Compound 120a, 6-Methoxy-N^2-methyl-N^4,N^8-di-n-propyl-pyrimido[5,4-d]pyrimidine-2,4,8-triamine] are 0.36 ratio vs. std, 1.37 h and 1.9 h.
For `CCCNc1nc(NCC)nc2c(NCCC)nc(NCC)nc12` [Compound 137a, N^2,N^6-Diethyl-N^4,N^8-di-n-propyl-pyrimido[5,4-d]pyrimidine-2,4,6,8-tetraamine], the “AUC MV Inc (2 min) (ratio vs. std*)” value in data set [1] was determined as 0.88 ratio vs. std. Further, in data set [4], the “minute volume compared to a vehicle-treated group” value is listed as “do not cause increases”, the “number of apneas per hr versus vehicle” value was “reduced; also recorded: decreased”, the “ventilation per unit time compared to vehicle” value is “did not cause an increase; also recorded: do not cause an increase” and the apnea frequency result is listed as “reduced; also recorded: decreased”. The “number of apneas per hr expressed as a percent change from baseline (pre-drug)” value in data set [4] is recorded as “reduced; also recorded: decreased”. Moreover, the “minute volume compared to a vehicle-treated group” value in data set [4] (higher dose) is on record as “caused an increase”. Also, the “minute volume compared to a vehicle-treated group” value in data set [4] (low dose) is “did not cause an increase”. The same compound showed a half-life at 5 μM in data set [2] of 1.62 h. In addition, the half-life at 5 μM in data set [3] is 3.78 h.
In the case of `CCCNc1nc(NC2CC2)nc2c(NCCC)nc(NC3CC3)nc12` [Compound 138, N^2,N^6-Dicyclopropyl-N^4,N^8-di-n-propyl-pyrimido[5,4-d]pyrimidine-2,4,6,8-tetraamine], the melting point is 210 to 212 °C. The “AUC MV Inc (2 min) (ratio vs. std*)” value in data set [1] stood at 0.53 ratio vs. std. The compound also registered a half-life at 5 μM in data set [2] of 5.52 h. The compound further returned a half-life at 5 μM in data set [3] greater than 8.33 h.
For the compound `C=CCNc1nc(NC)nc2c(NCC=C)nc(NC)nc12.Cl` [Compound 145a, N^4,N^8-Diallyl-N^2,N^6-dimethyl-pyrimido[5,4-d]pyrimidine-2,4,6,8-tetraamine hydrochloride], the “AUC MV Inc (2 min) (ratio vs. std*)” value in data set [1] is on record as 0.88 ratio vs. std. For the same compound, in data set [4] (hydrochloride), the apnea frequency entry is “reduced; also recorded: decreased”, the “number of apneas per hr expressed as a percent change from baseline (pre-drug)” value is “reduced; also recorded: decreased”, the “minute volume compared to a vehicle-treated group” value is “did not cause an increase; also recorded: do not cause increases” and the “number of apneas per hr versus vehicle” value was “reduced; also recorded: decreased”. Moreover, in data set [4] (hydrochloride), the “ventilation per unit time compared to vehicle” value is “did not cause an increase; also recorded: do not cause an increase”.

Source of the values: patent publication US9643971B2 (GALLEON PHARMACEUTICALS, INC., priority 2013, dated 2017).
